These results are taken from paper PMC12524942, “Efficient Hydrolysis of Dichlorvos in Water by Stenotrophomonas acidaminiphila G1 and Methyl Parathion Hydrolase” (International Journal of Molecular Sciences, 2025).

Each structure is given as a SMILES string.

The term Km denotes the concentration of substrate that gives half-maximal velocity.

The target of this assay is T1, MPD (methyl parathion hydrolase) (Stenotrophomonas sp. YC-1, UniProt Q0PWQ4).
T1 construct: full ORF (primers from […] to stop; locus Chr1:1174990-1175985, 996 bp), pET28a EcoRI/HindIII, His tag, E. coli BL21(DE3); 331 residues per monomer
T1 sequence (Q0PWQ4 entry or part of it): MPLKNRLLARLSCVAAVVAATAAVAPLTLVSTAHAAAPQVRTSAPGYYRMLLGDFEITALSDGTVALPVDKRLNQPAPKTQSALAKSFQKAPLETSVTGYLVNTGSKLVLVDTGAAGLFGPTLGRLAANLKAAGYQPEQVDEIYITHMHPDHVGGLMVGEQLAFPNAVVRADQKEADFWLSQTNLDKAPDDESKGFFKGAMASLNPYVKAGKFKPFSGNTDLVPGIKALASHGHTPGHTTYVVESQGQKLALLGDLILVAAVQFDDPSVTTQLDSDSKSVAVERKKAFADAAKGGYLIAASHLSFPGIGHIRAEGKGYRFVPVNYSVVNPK
The experiment in a line: UPLC of residual DDVP, Michaelis-Menten fit. The assay is classed as biochemical. Conditions: 37 °C, 1 min; DDVP 0.01 to 0.04 mM; enzyme refolded from urea.

Consider `COP(=O)(OC)OC=C(Cl)Cl` [DDVP, Dichlorvos], for which the Km was found to be 99 µM.
